Experimental data taken from paper PMC9448386, “Discovery of novel conjugates of quinoline and thiazolidinone urea as potential anti-colorectal cancer agent” (Journal of Enzyme Inhibition and Medicinal Chemistry, 2022).

Assays:
HGFR = HGFR (Homo sapiens, UniProt P08581); test: Mobility shift assay, HGFR kinase inhibition; type: biochemical; settings: mean of two independent experiments
Procedure: (§1) Kinase inhibitory activity against HGFR, MST1R, ABL, PDGFRβ, AXL, FLT3, RET, c-Src, and VEGFR-2 was evaluated by the mobility shift assay. Detailed operation could be found in our previous research.

HT-29 cells = test: MTT assay, cytotoxic activity against HT-29; type: cell-based, human; settings: Homo sapiens, HT-29, average of three separate determinations, SD shown
Excerpt: Taking lead compound BC2021-104511-15i, Fruquintinib and Regorafenib as positive controls, the cytotoxic activity against HT-29, HCT-116, COLO-205 and FHC cell lines by MTT assay. Detailed operation could be found in our previous study.

c-Src = c-Src (Homo sapiens, UniProt P12931); test: Mobility shift assay, c-Src; type: biochemical; settings: mean of two independent experiments, SD shown
c-Src, sequence (P12931 whole entry): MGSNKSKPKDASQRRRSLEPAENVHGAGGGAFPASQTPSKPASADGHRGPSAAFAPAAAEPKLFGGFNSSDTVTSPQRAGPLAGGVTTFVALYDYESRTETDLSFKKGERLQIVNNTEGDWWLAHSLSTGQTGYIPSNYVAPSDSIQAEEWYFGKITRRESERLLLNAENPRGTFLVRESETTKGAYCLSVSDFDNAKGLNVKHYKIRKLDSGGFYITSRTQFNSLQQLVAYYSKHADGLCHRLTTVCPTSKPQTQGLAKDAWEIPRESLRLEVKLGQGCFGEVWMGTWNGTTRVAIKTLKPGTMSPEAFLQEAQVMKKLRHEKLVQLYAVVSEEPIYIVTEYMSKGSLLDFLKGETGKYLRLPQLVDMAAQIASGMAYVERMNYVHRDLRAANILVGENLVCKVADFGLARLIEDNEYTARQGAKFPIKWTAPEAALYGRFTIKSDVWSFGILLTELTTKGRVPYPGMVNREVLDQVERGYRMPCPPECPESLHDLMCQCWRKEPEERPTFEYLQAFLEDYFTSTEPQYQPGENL
Procedure: as §1

COLO 205 cells [1] = test: Annexin V-FITC/PI apoptosis assay by flow cytometry; type: cell-based; settings: 72 h; for total apoptosis (early apoptosis and advanced apoptosis): mean of three independent determinations
Procedure: Quantitative analysis of early-apoptotic cells, advanced-apoptotic cells and necrotic cells was determined. COLO 205 cells were stimulated with different concentrations of compound 10a for 72 h. […] The total apoptosis including early apoptosis and advanced apoptosis accounted for 58.8%, 29.3% and 21.0% (the mean value of three independent determinations) when COLO 205 cells were treated with compound 10a at the concentration of 1.0 μM, 0.33 μM and 0.11 μM, respectively.
COLO 205 cells (2.5 × 10^5) were seeded in two 12-well plates and treated with DMSO and compound 10a (0.11 μM, 0.33 μM and 1.0 μM) for 72 h (37 °C, 5% CO2). The cells were collected, centrifuged at 1000 rpm for 5 min, and then washed with cold PBS for twice. Apoptosis assays were conducted with CytoFLEX S (Beckman Coulter).

COLO 205 cells [2] = test: Cell cycle arrest assay by flow cytometry; type: cell-based; settings: COLO 205, 0.33 μM and 0.11 μM, 24 h
Procedure: The antiproliferative activity of compound 10a was evaluated by flowcytometry analysis of COLO 205 cells. COLO 205 cells were treated with different concentrations (1.0 μM, 0.33 μM and 0.11 μM) of compound 10a for 24 h. […] At the concentration of 1.0 μM, cell cycle arrest could not be determined due to the massive dead cells (data not shown).
COLO 205 cells (2.5 × 10^5) were seeded in two 12-well plates and treated with DMSO and compound 10a (0.11 μM, 0.33 μM and 1.0 μM) for 24 h (37 °C, 5% CO2). Cells were collected, centrifuged at 1000 rpm for 5 min, washed with cold PBS for twice, and then fixed with 500 μL 75% cold ethanol at 4 °C. The cells were washed with cold PBS and stained with propidium iodide for 30 min in the dark. Cell-cycle analyses were conducted with Cytoflex S (Beckman Coulter).

HGFR, sequence (P08581 25-1390): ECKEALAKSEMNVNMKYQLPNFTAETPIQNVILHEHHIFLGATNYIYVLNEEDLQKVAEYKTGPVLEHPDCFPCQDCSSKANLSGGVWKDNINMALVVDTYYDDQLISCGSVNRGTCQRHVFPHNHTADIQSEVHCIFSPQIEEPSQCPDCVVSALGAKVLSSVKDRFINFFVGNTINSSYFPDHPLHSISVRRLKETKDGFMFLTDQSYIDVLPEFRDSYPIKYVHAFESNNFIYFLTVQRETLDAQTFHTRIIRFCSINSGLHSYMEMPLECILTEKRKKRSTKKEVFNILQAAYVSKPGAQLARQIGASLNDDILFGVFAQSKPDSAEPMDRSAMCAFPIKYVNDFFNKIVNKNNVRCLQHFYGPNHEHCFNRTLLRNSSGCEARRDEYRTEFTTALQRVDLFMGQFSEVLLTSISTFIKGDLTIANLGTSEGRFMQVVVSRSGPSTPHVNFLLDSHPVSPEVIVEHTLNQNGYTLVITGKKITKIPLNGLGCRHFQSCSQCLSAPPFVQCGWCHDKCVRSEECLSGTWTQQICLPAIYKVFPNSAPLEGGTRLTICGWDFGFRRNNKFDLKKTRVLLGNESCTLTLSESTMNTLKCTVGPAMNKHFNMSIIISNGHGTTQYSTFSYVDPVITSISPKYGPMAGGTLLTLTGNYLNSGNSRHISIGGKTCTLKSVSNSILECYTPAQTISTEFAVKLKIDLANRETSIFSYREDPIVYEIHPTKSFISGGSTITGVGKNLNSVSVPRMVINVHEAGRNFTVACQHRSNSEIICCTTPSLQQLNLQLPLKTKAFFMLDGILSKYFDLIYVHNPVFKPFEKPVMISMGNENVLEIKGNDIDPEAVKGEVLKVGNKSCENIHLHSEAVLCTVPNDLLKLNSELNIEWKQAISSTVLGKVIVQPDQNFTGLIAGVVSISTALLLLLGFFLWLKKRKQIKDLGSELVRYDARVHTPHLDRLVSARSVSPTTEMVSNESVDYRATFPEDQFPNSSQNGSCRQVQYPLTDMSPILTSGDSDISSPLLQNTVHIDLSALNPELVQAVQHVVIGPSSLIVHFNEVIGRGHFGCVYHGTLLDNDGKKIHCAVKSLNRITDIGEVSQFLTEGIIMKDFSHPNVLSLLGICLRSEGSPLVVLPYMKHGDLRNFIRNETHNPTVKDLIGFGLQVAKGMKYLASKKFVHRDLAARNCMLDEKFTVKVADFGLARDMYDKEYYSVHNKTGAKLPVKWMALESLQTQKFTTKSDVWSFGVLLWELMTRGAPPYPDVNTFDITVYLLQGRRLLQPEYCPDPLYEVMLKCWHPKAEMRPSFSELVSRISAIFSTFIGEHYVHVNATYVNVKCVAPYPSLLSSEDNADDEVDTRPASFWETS

IC50 (HGFR): 0.11 µM
IC50 (c-Src): 0.42 ± 0.035 µM
Compound: COc1cc2c(Oc3ccc(NC(=O)NN4C(=O)CSC4c4c(F)cccc4F)cc3F)ccnc2cc1OC1CCN(CC(N)=O)CC1 (centres unmarked) [Compound 10a, 2–(4-((4–(4-(3–(2-(2,6-Difluorophenyl)-4-oxothiazolidin-3-yl)ureido)-2-fluorophenoxy)-6-methoxyquinolin-7-yl)oxy)piperidin-1-yl)acetamide]
IC50 (HT-29 cells): 1.3 ± 0.11 µM
total apoptosis (early apoptosis and advanced apoptosis) (COLO 205 cells [1]; COLO 205, 0.11 μM): 21.0%
total apoptosis (early apoptosis and advanced apoptosis) (COLO 205 cells [1]; COLO 205, 0.33 μM): 29.3%
total apoptosis (early apoptosis and advanced apoptosis) (COLO 205 cells [1]; COLO 205, 1.0 μM): 58.8%
induction of apoptosis (COLO 205 cells [1]; COLO 205, 0.11–1.0 μM): could effectively induce COLO 205 cells apoptosis in a dose-dependent manner
cell cycle arrest (COLO 205 cells [2]): could not arrest the cell-cycle progression
